Species on record: Rattus norvegicus
Experiment: In vitro metabolism of radiolabeled compound at 10 uM was performed in rat microsomal protein containing a NADPH-regenerating system for 1 hr at 37 degree C
Format: functional

Row | SMILES | Covalent binding [%] | Covalent binding (tested as the 3H-labelled form) [%]
1 | Cc1cncc(C)c1CC(c1ccc(C(O)(C(F)(F)F)C(F)(F)F)cc1)c1ccc(OCF)c(OC(F)F)c1 (stereo not given) | < 0.05 | 
2 | COc1ccc([C@H](Cc2ccncc2)c2ccc(C(O)(C(F)(F)F)C(F)(F)F)cc2)cc1OC1CCCC1 |  | 3.1
3 | Cc1cncc(C)c1CC(c1ccc(C(O)(C(F)(F)F)C(F)(F)F)cc1)c1ccc(OCF)c(OC2CCC2)c1 (stereo not given) | 0.45 | 
4 | [O-][n+]1ccc(CC(c2ccc(C(O)(C(F)(F)F)C(F)(F)F)cc2)c2ccc(OC(F)F)c(OC(F)F)c2)cc1 (stereo not given) | < 0.05 | 
5 | COc1ccc(C(Cc2c(C)cncc2C)c2ccc(C(O)(C(F)(F)F)C(F)(F)F)cc2)cc1OC1CCCC1 (stereo not given) | 2.9 | 

From ChEMBL document CHEMBL1134861, “Improving metabolic stability of phosphodiesterase-4 inhibitors containing a substituted catechol: prevention of reactive intermediate formation and covalent binding” (Bioorg Med Chem Lett, 2002)
